Laboratory results: patent publication US8440240B2, “Method for treating ocular demodex” (priority 2005, dated 2013)
“And” between values parts separate entries of the source, which are not always exact repeats. Equal values may be shown once.

Experiments:
[1] = tested on: Demodex folliculorum; experiment: In vitro killing: survival time of live adult demodex from epilated lashes in test solutions; conditions: for ST: survival time of demodex: 150 = still alive (no effect); for killing effect on Demodex in words (relative to TTO): in vitro
Procedure: TT shampoo was from Kato Sales, Inc. (Altamonte Springs, Fla., USA). TTO was diluted with mineral oil into different concentrations.
Under the microscope, if the epilated lash contained live demodex, different solutions were added to the coverslip edge. The movement of demodex body and legs was continuously observed for 150 minutes. The survival time (ST) (Table 2 below) was counted from the time when the solution was added to the time when the movement ceased (See FIG. 1) The average ST tested for a given solution in a number of mites was used to compare the in vitro killing effect. If demodex remained alive at the end of 150 minutes, this value was denoted as no effect. Because demodex in an earlier life stage was more vulnerable, we only tested adult demodex that had 4 pairs of well developed legs and stumpy body. Because demodex buried in cylindrical dandruff (CD) might preclude the killing effect, we only tested demodex of which the whole body was fully exposed to the test solution.

[2] = tested on: Demodex folliculorum; conditions: Norn 1970; cited from earlier work

povidone iodine [PI, reference compound]
ST: survival time of demodex ([1]; 10% solution, observed 150 min): 150 min

CC1=CCC(O)(C(C)C)CC1 (centres unmarked) [Terpinen-4-ol]
killing effect on Demodex in words (relative to TTO) [1]: active ingredient

CC[C@@H]1C(=O)OC[C@@H]1Cc1cncn1C [Pilo, pilocarpine, reference compound]
Killing effect on Demodex (Time in minutes), Average ([1]; 2%, 150 = no effect): 150 min | Killing effect on Demodex (Time in minutes), single mite ([1]; 2%, 150 = no effect): 150 min | ST: survival time of demodex ([1]; 4% solution): 150 min | ST: survival time of demodex ([1]; 4% solution, listed as Pilocarpine): > 150 min | Killing effect on Demodex (Time in minutes), Average ([1]; 4%, 150 = no effect): 150 min | Killing effect on Demodex (Time in minutes), single mite ([1]; 4%, 150 = no effect): 150 min

C=C(C)[C@H]1CC=C(C)C(=O)C1 [(+)-Carvone]
Killing effect on Demodex (Time in minutes), Average ([1]; 25%): 22.7 min | Killing effect on Demodex (Time in minutes), single mite ([1]; 25%): 25 min and 20 min and 23 min | Killing effect on Demodex (Time in minutes), Average ([1]; 50%): 11.6 min | Killing effect on Demodex (Time in minutes), single mite ([1]; 50%): 13 min and 8 min and 10 min and 11 min and 16 min | Killing effect on Demodex (Time in minutes), Average ([1]; 100%): 4.2 min | Killing effect on Demodex (Time in minutes), single mite ([1]; 100%): 4 min and 5 min and 3 min | killing effect on Demodex in words (relative to TTO) [1]: as effective as TTO

C=C(C)[C@H]1CC=C(C)CC1 [(+)-Limonene, (R)-(+)-Limonene]
Killing effect on Demodex (Time in minutes), Average ([1]; 97%): 66.8 min | killing effect on Demodex in words (relative to TTO) [1]: not as effective as TTO

CCOCC [ether]
time to kill demodex [2]: within several minutes

c1ccccc1 [benzene]
time to kill demodex [2]: within several minutes

CCO [Alc, alcohol, reference compound]
ST: survival time of demodex ([1]; 75% solution): 150 min | ST: survival time of demodex ([1]; 100% solution, adult mites, observed 150 min, mean±S.D.): 3.9 ± 1.2 min | time to kill demodex [2]: within several minutes

CC12CCC(CC1)C(C)(C)O2 [Eucalyptol]
Killing effect on Demodex (Time in minutes), Average ([1]; concentration not given): 36.8 min | Killing effect on Demodex (Time in minutes), single mite ([1]; concentration not given): 30 min and 35 min and 40 min and 42 min | killing effect on Demodex in words (relative to TTO) [1]: not as effective as TTO

xylol
time to kill demodex [2]: within several minutes
